According to ChEMBL document CHEMBL4138299, “Discovery of 3,3'-Spiro[Azetidine]-2-oxo-indoline Derivatives as Fusion Inhibitors for Treatment of RSV Infection” (ACS Med Chem Lett, 2018):

How the values were obtained:
[1] = Cytotoxicity against human Hep2 cells after 5 days by CCK8 assay; conditions: HEp-2 cells
[2] = Clearance in Balb/c mouse at 1 mg/kg, iv administered as single bolus dose by LC-MS/MS analysis; conditions: in vivo
[3] = Half life in Balb/c mouse at 1 mg/kg, iv administered as single bolus dose by LC-MS/MS analysis; conditions: in vivo
[4] = Volume of distribution in Balb/c mouse at 1 mg/kg, iv administered as single bolus dose by LC-MS/MS analysis; conditions: in vivo
Human orthopneumovirus [5] = experiment: (§1) Antiviral activity against human respiratory syncytial virus A2 infected in po dosed Balb/c mouse assessed as reduction in lung viral load administered once daily pretreated for 1 hr on day 0 followed by viral infection and subsequent compound dosing for 3 days measured after 1 day post last dose by plaque assay; type: functional, organism-based
Human orthopneumovirus [6] = experiment: as §1, with “in” for “in po dosed”, “load at 50 mg/kg, po” for “load”; type: functional
Human orthopneumovirus [7] = experiment: as §1, with “in” for “in po dosed”, “load at 5 mg/kg, po” for “load”; type: functional
Human orthopneumovirus [8] = experiment: as §1, with “in” for “in po dosed”, “load at 15 mg/kg, po” for “load”; type: functional
in vivo [9] = conditions: Balb/c, mouse, iv, 1 mg/kg
Description: AUC (0 to infinity) in Balb/c mouse at 1 mg/kg, iv administered as single bolus dose by LC-MS/MS analysis

in vivo [10] = conditions: Balb/c, mouse, po, 10 mg/kg
Description: Cmax in Balb/c mouse at 10 mg/kg, po administered as single dose via gavage by LC-MS/MS analysis

in vivo [11] = conditions: Balb/c, mouse, po, 10 mg/kg; remark: listed apart in the source
Description: Tmax in Balb/c mouse at 10 mg/kg, po administered as single dose via gavage by LC-MS/MS analysis

in vivo [12] = conditions: Balb/c, mouse, po, 10 mg/kg; remark: listed apart in the source
Description: AUC (0 to infinity) in Balb/c mouse at 10 mg/kg, po administered as single dose via gavage by LC-MS/MS analysis

in vivo [13] = conditions: Balb/c, mouse, po, 10 mg/kg; remark: listed apart in the source
Description: Oral bioavailability in Balb/c mouse at 10 mg/kg administered as single dose via gavage by LC-MS/MS analysis

## OCCCCn1c(Cn2c(-c3cscn3)nc3ccccc32)nc2ccccc21
[1]
  CC50 at 120 h: > 100 µM

## OCCCCn1c(Cn2c3c(c4ccccc42)CCNC3)nc2ccccc21
[1]
  CC50 at 120 h: > 100 µM

## CN1CCOC2(C1)C(=O)N(Cc1nc3cc(Br)ccc3n1CCCCO)c1ccccc12 (stereo unspecified)
[1]
  CC50 at 120 h: > 100 µM

## O=C1N(Cc2nc3cc(C(F)(F)F)ccc3n2CCCCO)c2ccccc2C12CC2
[1]
  CC50 at 120 h: > 100 µM

## O=C1N(Cc2nc3cc(I)ccc3n2CCCCO)c2ccccc2C12CC2
[1]
  CC50 at 120 h: > 100 µM

## OCCCCn1c(Cn2ncc3ccncc32)nc2ccccc21
[1]
  CC50 at 120 h: > 100 µM

## CS(=O)(=O)N1CCC2(C1)C(=O)N(Cc1nc3cc(Br)ccc3n1CCCCO)c1ccccc12 (stereo unspecified)
[1]
  CC50 at 120 h: > 100 µM

## O=c1oc2ccccc2n1Cc1nc2ccccc2n1CCCCO
[1]
  CC50 at 120 h: > 100 µM

## NCc1ccc2c(c1)nc(CN1C(=O)C3(CC3)c3ccccc31)n2CCCCO
[1]
  CC50 at 120 h: > 100 µM

## O=C1N(Cc2nc3cc(Br)ccc3n2CCCCO)c2ccccc2C12CC2
[1]
  CC50 at 120 h: > 100 µM

## O=C1N(Cc2nc3cc(C4CCCCC4)ccc3n2CCCCO)c2ccccc2C12CC2
[1]
  CC50 at 120 h: > 100 µM

## O=C1N(Cc2nc3ccccc3n2CCCCO)c2ccccc2C12CC2
[1]
  CC50 at 120 h: > 100 µM

## CC(C)OC(=O)N1CCC2(C1)C(=O)N(Cc1nc3cc(Br)ccc3n1CCCCO)c1ccccc12 (stereo unspecified)
[1]
  CC50 at 120 h: > 100 µM

## CN1CCC2(CC1)C(=O)N(Cc1nc3cc(Br)ccc3n1CCCCO)c1ccccc12
[1]
  CC50 at 120 h: > 100 µM

## CS(=O)(=O)N1CC2(C1)C(=O)N(Cc1nc3cc(Br)ccc3n1CCCCO)c1ccccc12
[1]
  CC50 at 120 h: > 100 µM

## CC(C)C(=O)N1CCC2(C1)C(=O)N(Cc1nc3cc(Br)ccc3n1CCCCO)c1ccccc12 (stereo unspecified)
[1]
  CC50 at 120 h: > 100 µM

## O=C1N(Cc2nc3cc(Cl)ccc3n2CCCCO)c2ccccc2C12CC2
[1]
  CC50 at 120 h: > 100 µM

## Cc1ccc2c(c1)nc(CN1C(=O)C3(CC3)c3ccccc31)n2CCCCO
[1]
  CC50 at 120 h: > 100 µM

## CC(C)C(=O)N1CC2(C1)C(=O)N(Cc1nc3cc(Br)ccc3n1CCCCO)c1ccccc12
[1]
  CC50 at 120 h: > 100 µM

## CC(C)OC(=O)N1CC2(C1)C(=O)N(Cc1nc3cc(Br)ccc3n1CCCCO)c1ccccc12
[1]
  CC50 at 120 h: > 100 µM
[2]
  clearance: 28 mL/min/kg
[3]
  half-life: 84 min
[4]
  Vd: 1.6 L/kg
Human orthopneumovirus [5]
  Activity: Dose-dependent effect
Human orthopneumovirus [6]
  log(activity): 3.91
Human orthopneumovirus [7]
  log(activity): 1.64
Human orthopneumovirus [8]
  log(activity): 2.05
In vivo [9]
  AUC(0-inf): 1.13 µM·h
In vivo [10]
  Cmax: 3.32 µM
In vivo [11]
  Tmax: 15 min
In vivo [12]
  AUC(0-inf): 8.08 µM·h
In vivo [13]
  bioavailability: 71%

## Cc1nc(=O)n(Cc2nc3ccccc3n2CCCCO)c2ccccc12
[1]
  CC50 at 120 h: > 100 µM

## OCCCCn1c(Cn2ncc3ccccc32)nc2ccccc21
[1]
  CC50 at 120 h: > 100 µM

## O=C1NC(=O)C2(N1)C(=O)N(Cc1nc3cc(Br)ccc3n1CCCCO)c1ccccc12 (stereo unspecified)
[1]
  CC50 at 120 h: > 100 µM

## Cc1c2c(nn1Cc1nc3ccccc3n1CCCCO)CCCC2
[1]
  CC50 at 120 h: > 100 µM

## O=C1N(Cc2nc3ccccc3n2CCCCO)c2cnccc2C12CC2
[1]
  CC50 at 120 h: > 100 µM

## O=C1N(Cc2nc3cc(Br)ccc3n2CCCCO)c2ccccc2C12CCN(C1COC1)CC2
[1]
  CC50 at 120 h: > 100 µM

## O=C1N(Cc2nc3cc(Br)ccc3n2CCCCO)c2ccccc2C12CCOCC2
[1]
  CC50 at 120 h: > 100 µM

## CC1CC(=O)N(Cc2nc3ccccc3n2CCCCO)c2ccccc2N1 (stereo unspecified)
[1]
  CC50 at 120 h: > 100 µM

## O=C1N(Cc2nc3cc(F)ccc3n2CCCCO)c2ccccc2C12CC2
[1]
  CC50 at 120 h: > 100 µM

## Cc1cc(=O)n(Cc2nc3ccccc3n2CCCCO)c2ccccc12
[1]
  CC50 at 120 h: > 100 µM

## O=C1N(Cc2nc3ccccc3n2CCCCO)c2cc(F)ccc2C12CC2
[1]
  CC50 at 120 h: > 100 µM

## O=C1N(Cc2nc3cc(Br)ccc3n2CCCCO)c2ccccc2C12CSC2
[1]
  CC50 at 120 h: > 100 µM

## O=C1N(Cc2nc3cc(Br)ccc3n2CCCCO)c2ccccc2C12CS(=O)(=O)C2
[1]
  CC50 at 120 h: > 100 µM

## CC1(C)C(=O)N(Cc2nc3ccccc3n2CCCCO)c2ccccc21
[1]
  CC50 at 120 h: > 100 µM

## Cc1nn(Cc2nc3ccccc3n2CCCCO)c2ccccc12
[1]
  CC50 at 120 h: > 100 µM

## O=C1N(Cc2nc3ccccc3n2CCCCO)CN(c2ccccc2)C12CCNCC2
[1]
  CC50 at 120 h: > 100 µM

## N#Cc1ccc2c(c1)nc(CN1C(=O)C3(CC3)c3ccccc31)n2CCCCO
[1]
  CC50 at 120 h: > 100 µM

## O=C1N(Cc2nc3cc(Br)ccc3n2CCCCO)c2ccccc2C12CNC2
[1]
  CC50 at 120 h: > 100 µM

## N#Cc1cn(Cc2nc3ccccc3n2CCCCO)c2ccccc12
[1]
  CC50 at 120 h: > 100 µM

## OCCCCn1c(Cn2c(C(F)(F)F)nc3ccccc32)nc2ccccc21
[1]
  CC50 at 120 h: > 100 µM

## OCCCCn1c(Cn2ccc3ccncc32)nc2ccccc21
[1]
  CC50 at 120 h: > 100 µM

## CN1CC2(C1)C(=O)N(Cc1nc3cc(Br)ccc3n1CCCCO)c1ccccc12
[1]
  CC50 at 120 h: > 100 µM

## Cc1nn(Cc2nc3ccccc3n2CCCCO)c2c1CCCC2
[1]
  CC50 at 120 h: > 100 µM

## O=C1N(Cc2nc3cc(Br)ccc3n2CCCCO)c2ccccc2C12CCOC2 (stereo unspecified)
[1]
  CC50 at 120 h: > 100 µM
